Common to all, as to assay: cell-based
For experiment [1], the target named is hNav1.7 (Homo sapiens, UniProt Q15858). The note with it: read-out: IC50 (μM) Nav1.7.
Experiment [2] has as its target hNav1.5 (Homo sapiens, UniProt Q14524). Conditions: IonWorks Quattro; Table 6; read-out: IC50 (μM) Nav1.5. On the technique in general: The patch-clamp technique gives a direct electrical read-out from membranes.
The target of experiment [3] is hNav1.4 (Homo sapiens, UniProt P35499). Type of experiment: cell-based. Conditions: Table 6; for IC50: IonWorks Quattro, read-out: IC50 (μM) Nav1.4; for Nav1.4/Nav1.7: ratio of IonWorks Quattro IC50 values.
For experiment [4], the target named is hNav1.3 (Homo sapiens, UniProt Q9NY46). Conditions: IonWorks Quattro; Table 6; read-out: IC50 (μM) Nav1.3.

Sequence of hNav1.4 (P35499 whole entry): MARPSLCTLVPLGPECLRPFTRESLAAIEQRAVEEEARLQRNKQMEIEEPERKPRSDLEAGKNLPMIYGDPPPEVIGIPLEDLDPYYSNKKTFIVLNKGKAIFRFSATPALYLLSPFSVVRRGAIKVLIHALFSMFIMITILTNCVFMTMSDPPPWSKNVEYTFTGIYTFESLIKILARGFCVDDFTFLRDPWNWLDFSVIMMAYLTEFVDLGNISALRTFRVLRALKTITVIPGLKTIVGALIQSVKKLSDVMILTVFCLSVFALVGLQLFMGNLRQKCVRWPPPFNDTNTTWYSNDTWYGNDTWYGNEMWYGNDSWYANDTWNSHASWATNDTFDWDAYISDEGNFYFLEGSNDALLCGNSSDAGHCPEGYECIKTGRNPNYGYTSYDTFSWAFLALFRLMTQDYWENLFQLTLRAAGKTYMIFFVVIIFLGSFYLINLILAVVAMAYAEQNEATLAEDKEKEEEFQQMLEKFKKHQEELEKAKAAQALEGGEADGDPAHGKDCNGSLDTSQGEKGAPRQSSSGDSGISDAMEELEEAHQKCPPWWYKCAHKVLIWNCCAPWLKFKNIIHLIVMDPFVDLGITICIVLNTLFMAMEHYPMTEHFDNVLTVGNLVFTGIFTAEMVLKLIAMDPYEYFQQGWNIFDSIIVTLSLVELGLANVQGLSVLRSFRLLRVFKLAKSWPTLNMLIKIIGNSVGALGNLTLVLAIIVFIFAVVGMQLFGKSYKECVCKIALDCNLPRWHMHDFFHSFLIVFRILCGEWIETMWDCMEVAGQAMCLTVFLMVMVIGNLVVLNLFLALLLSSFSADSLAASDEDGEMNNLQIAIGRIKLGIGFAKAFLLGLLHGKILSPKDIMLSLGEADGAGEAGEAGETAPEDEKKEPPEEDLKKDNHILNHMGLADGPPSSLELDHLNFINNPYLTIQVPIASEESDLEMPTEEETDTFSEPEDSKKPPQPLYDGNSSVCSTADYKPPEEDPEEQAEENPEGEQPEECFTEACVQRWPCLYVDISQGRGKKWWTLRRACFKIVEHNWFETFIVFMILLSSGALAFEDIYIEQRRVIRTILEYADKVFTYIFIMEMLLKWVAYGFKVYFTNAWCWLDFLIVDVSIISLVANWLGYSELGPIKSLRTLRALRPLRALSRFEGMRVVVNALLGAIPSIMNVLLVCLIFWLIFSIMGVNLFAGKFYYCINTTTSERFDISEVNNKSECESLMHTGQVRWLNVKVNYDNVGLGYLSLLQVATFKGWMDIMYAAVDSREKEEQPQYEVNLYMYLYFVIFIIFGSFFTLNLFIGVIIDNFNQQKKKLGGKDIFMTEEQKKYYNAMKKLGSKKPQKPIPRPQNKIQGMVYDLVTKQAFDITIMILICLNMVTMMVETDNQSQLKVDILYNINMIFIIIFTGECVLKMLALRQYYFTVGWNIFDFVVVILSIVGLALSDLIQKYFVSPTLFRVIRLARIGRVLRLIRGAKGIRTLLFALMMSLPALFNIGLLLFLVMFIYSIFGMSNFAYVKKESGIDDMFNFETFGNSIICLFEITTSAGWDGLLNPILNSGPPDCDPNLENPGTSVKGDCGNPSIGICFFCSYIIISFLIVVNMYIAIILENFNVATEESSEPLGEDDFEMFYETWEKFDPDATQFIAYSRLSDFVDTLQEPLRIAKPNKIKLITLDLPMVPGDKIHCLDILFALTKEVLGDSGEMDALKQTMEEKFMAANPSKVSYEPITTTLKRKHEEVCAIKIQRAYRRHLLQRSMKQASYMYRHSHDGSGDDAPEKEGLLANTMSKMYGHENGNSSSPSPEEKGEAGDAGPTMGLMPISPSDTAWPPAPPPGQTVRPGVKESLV
Sequence of hNav1.7 (Q15858 whole entry): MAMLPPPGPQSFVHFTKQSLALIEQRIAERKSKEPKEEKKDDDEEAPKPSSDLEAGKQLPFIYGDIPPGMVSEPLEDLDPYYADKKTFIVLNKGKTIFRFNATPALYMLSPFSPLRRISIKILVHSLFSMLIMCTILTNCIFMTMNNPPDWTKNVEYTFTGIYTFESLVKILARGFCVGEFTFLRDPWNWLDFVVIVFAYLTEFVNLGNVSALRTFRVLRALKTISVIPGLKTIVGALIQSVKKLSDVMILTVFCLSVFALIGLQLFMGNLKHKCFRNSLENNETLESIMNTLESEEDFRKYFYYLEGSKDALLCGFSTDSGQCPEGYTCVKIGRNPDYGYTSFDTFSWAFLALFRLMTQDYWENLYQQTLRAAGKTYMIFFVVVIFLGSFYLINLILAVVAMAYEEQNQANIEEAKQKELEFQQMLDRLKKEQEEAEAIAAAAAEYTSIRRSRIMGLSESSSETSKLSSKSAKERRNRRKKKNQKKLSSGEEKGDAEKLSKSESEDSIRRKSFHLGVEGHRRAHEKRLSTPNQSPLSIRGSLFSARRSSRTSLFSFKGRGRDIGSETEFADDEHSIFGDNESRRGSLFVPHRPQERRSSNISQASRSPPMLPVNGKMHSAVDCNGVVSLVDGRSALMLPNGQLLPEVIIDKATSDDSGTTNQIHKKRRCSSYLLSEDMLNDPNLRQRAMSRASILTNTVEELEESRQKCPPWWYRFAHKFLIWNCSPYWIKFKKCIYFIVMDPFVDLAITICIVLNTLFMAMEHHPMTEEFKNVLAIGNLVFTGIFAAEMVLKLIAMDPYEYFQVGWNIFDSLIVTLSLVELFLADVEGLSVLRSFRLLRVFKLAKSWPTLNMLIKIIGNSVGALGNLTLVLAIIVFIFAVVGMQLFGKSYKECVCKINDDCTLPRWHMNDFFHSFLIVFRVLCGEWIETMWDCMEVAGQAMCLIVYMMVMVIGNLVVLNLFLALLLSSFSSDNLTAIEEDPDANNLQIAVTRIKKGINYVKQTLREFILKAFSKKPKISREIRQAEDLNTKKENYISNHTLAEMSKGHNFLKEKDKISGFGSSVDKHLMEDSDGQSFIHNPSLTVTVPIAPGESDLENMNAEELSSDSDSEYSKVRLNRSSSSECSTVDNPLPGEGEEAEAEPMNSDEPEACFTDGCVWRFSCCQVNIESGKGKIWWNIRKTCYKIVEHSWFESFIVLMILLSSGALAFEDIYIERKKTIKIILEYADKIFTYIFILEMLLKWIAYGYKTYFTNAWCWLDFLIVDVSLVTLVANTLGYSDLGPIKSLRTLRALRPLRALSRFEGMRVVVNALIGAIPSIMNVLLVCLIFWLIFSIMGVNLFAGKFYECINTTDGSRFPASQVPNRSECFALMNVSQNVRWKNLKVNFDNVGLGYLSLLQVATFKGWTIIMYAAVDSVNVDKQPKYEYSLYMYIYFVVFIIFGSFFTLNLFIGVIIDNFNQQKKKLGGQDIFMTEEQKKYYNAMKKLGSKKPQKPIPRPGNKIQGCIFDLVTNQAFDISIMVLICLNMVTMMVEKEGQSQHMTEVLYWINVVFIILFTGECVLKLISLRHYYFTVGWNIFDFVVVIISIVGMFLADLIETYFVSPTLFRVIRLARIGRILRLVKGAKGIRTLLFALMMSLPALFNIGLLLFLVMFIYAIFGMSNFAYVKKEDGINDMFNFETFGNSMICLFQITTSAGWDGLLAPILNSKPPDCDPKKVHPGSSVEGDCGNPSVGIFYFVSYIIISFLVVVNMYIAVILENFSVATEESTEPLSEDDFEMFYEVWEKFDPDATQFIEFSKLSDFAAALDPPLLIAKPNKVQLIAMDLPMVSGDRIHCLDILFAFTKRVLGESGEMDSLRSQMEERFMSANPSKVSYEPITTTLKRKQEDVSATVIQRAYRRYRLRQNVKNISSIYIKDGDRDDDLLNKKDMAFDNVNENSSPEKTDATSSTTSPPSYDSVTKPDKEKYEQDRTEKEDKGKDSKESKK

The term IC50 denotes the point on the concentration scale where inhibition reaches its midpoint. As to `CC[C@H](C)[C@H](NC(=O)[C@@H](NC(=O)[C@H](CCCCN)NC(=O)[C@H](CCCNC(=N)N)NC(=O)[C@@H]1CSSC[C@@H]2NC(=O)[C@H](C)NC(=O)[C@H](CCCNC(=N)N)NC(=O)[C@H](C)NC(=O)[C@H](CO)NC(=O)[C@H](CC(=O)O)NC(=O)[C@@H]3CSSC[C@H](NC(=O)[C@H](CCCNC(=N)N)NC(=O)[C@H](CC(C)C)NC(=O)CNC(=O)[C@H](CCC(=O)O)NC(=O)[C@H](CSSC[C@H](NC(=O)[C@@H](N)Cc4ccc(O)cc4)C(=O)N[C@@H](CCC(N)=O)C(=O)N[C@@H](CCCCN)C(=O)N[C@@H](Cc4c[nH]c5ccccc45)C(=O)N[C@@H](CCSC)C(=O)N[C@@H](Cc4c[nH]c5ccccc45)C(=O)N[C@@H]([C@@H](C)O)C(=O)N3)NC2=O)C(=O)N[C@@H](CCCCN)C(=O)N[C@@H](CC(C)C)C(=O)N[C@@H](Cc2c[nH]c3ccccc23)C(=O)N1)[C@@H](C)CC)C(N)=O` [compound 12], the IC50 in experiment [1] was 0.022 µM; in experiment [2], greater than 5 µM; in experiment [3] it was 0.26 µM; in experiment [4] it was 0.15 µM. Further, in experiment [3], the Nav1.4/Nav1.7 worked out at 12.
With `CC[C@H](C)[C@H](NC(=O)[C@@H](NC(=O)[C@H](CCCCN)NC(=O)[C@H](CCCNC(=N)N)NC(=O)[C@@H]1CSSC[C@@H]2NC(=O)[C@H](C)NC(=O)[C@H](C)NC(=O)[C@H](CCCCN)NC(=O)[C@H](CO)NC(=O)[C@H](CC(=O)O)NC(=O)[C@@H]3CSSC[C@H](NC(=O)[C@H](CCCNC(=N)N)NC(=O)[C@H](CC(C)C)NC(=O)CNC(=O)[C@H](CCC(=O)O)NC(=O)[C@H](CSSC[C@H](NC(=O)[C@@H](N)Cc4ccc(O)cc4)C(=O)N[C@@H](CCC(N)=O)C(=O)N[C@@H](CCCCN)C(=O)N[C@@H](Cc4c[nH]c5ccccc45)C(=O)N[C@@H](CCSC)C(=O)N[C@@H](Cc4c[nH]c5ccccc45)C(=O)N[C@@H]([C@@H](C)O)C(=O)N3)NC2=O)C(=O)N[C@@H](CCCCN)C(=O)N[C@@H](CC(C)C)C(=O)N[C@@H](Cc2c[nH]c3ccccc23)C(=O)N1)[C@@H](C)CC)C(N)=O` [compound 13], the IC50 in experiment [1] was 0.079 µM; in experiment [2], greater than 5 µM; in experiment [3], 0.57 µM; in experiment [4] it was 0.3 µM. In addition, the Nav1.4/Nav1.7 in experiment [3] worked out at 7.
On the same counts, the results for `CC[C@H](C)[C@H](NC(=O)[C@@H](NC(=O)[C@H](CCCCN)NC(=O)[C@H](CCCNC(=N)N)NC(=O)[C@@H]1CSSC[C@@H]2NC(=O)[C@H](C)NC(=O)[C@H](CCCNC(=N)N)NC(=O)[C@H](CCCCN)NC(=O)[C@H](CO)NC(=O)[C@H](CC(=O)O)NC(=O)[C@@H]3CSSC[C@H](NC(=O)[C@H](CCCNC(=N)N)NC(=O)[C@H](CC(C)C)NC(=O)CNC(=O)[C@H](C)NC(=O)[C@H](CSSC[C@H](NC(=O)[C@@H](N)Cc4ccc(O)cc4)C(=O)N[C@@H](CCC(N)=O)C(=O)N[C@@H](CCCCN)C(=O)N[C@@H](Cc4c[nH]c5ccccc45)C(=O)N[C@@H](CCSC)C(=O)N[C@@H](Cc4c[nH]c5ccccc45)C(=O)N[C@@H]([C@@H](C)O)C(=O)N3)NC2=O)C(=O)N[C@@H](CCCCN)C(=O)N[C@@H](CC(C)C)C(=O)N[C@@H](Cc2c[nH]c3ccccc23)C(=O)N1)[C@@H](C)CC)C(N)=O` [compound 14] are 0.008 µM, 2 µM, 0.06 µM, 0.08 µM and 8.
On the same counts, the results for `CC[C@H](C)[C@H](NC(=O)[C@@H](NC(=O)[C@H](CCCCN)NC(=O)[C@H](CCCNC(=N)N)NC(=O)[C@@H]1CSSC[C@@H]2NC(=O)[C@H](C)NC(=O)[C@H](CCCNC(=N)N)NC(=O)[C@H](CCCCN)NC(=O)[C@H](CO)NC(=O)[C@H](CC(=O)O)NC(=O)[C@@H]3CSSC[C@H](NC(=O)[C@H](CCCNC(=N)N)NC(=O)[C@H](CC(C)C)NC(=O)[C@H](C)NC(=O)[C@H](CCC(=O)O)NC(=O)[C@H](CSSC[C@H](NC(=O)[C@@H](N)Cc4ccc(O)cc4)C(=O)N[C@@H](CCC(N)=O)C(=O)N[C@@H](CCCCN)C(=O)N[C@@H](Cc4c[nH]c5ccccc45)C(=O)N[C@@H](CCSC)C(=O)N[C@@H](Cc4c[nH]c5ccccc45)C(=O)N[C@@H]([C@@H](C)O)C(=O)N3)NC2=O)C(=O)N[C@@H](CCCCN)C(=O)N[C@@H](CC(C)C)C(=O)N[C@@H](Cc2c[nH]c3ccccc23)C(=O)N1)[C@@H](C)CC)C(N)=O` [compound 15] are 0.04 µM, greater than 5 µM, 0.26 µM, 0.24 µM and 7.
For `CC[C@H](C)[C@H](NC(=O)[C@@H](NC(=O)[C@H](CCCCN)NC(=O)[C@H](CCCNC(=N)N)NC(=O)[C@@H]1CSSC[C@@H]2NC(=O)[C@H](C)NC(=O)[C@H](CCCNC(=N)N)NC(=O)[C@H](CCCCN)NC(=O)[C@H](CO)NC(=O)[C@H](CC(=O)O)NC(=O)[C@@H]3CSSC[C@H](NC(=O)[C@H](CCCNC(=N)N)NC(=O)[C@H](CC(C)C)NC(=O)CNC(=O)[C@H](CCC(=O)O)NC(=O)[C@H](CSSC[C@H](NC(=O)[C@@H](N)Cc4ccc(O)cc4)C(=O)N[C@@H](CCC(N)=O)C(=O)N[C@@H](CCCCN)C(=O)N[C@@H](Cc4c[nH]c5ccccc45)C(=O)N[C@@H](CCSC)C(=O)N[C@@H](Cc4c[nH]c5ccccc45)C(=O)N[C@@H]([C@@H](C)O)C(=O)N3)NC2=O)C(=O)N[C@@H](C)C(=O)N[C@@H](CC(C)C)C(=O)N[C@@H](Cc2c[nH]c3ccccc23)C(=O)N1)[C@@H](C)CC)C(N)=O` [compound 18], in that order: 0.062 µM, greater than 5 µM, 0.41 µM, 0.52 µM and 7.
As to `CC[C@H](C)[C@H](NC(=O)[C@@H](NC(=O)[C@H](CCCCN)NC(=O)[C@H](CCCNC(=N)N)NC(=O)[C@@H]1CSSC[C@@H]2NC(=O)[C@H](C)NC(=O)[C@H](CCCNC(=N)N)NC(=O)[C@H](CCCCN)NC(=O)[C@H](CO)NC(=O)[C@H](CC(=O)O)NC(=O)[C@@H]3CSSC[C@H](NC(=O)[C@H](CCCNC(=N)N)NC(=O)[C@H](CC(C)C)NC(=O)CNC(=O)[C@H](CCC(=O)O)NC(=O)[C@H](CSSC[C@H](NC(=O)[C@@H](N)Cc4ccc(O)cc4)C(=O)N[C@@H](CCC(N)=O)C(=O)N[C@@H](CCCCN)C(=O)N[C@@H](Cc4c[nH]c5ccccc45)C(=O)N[C@@H](CCSC)C(=O)N[C@@H](Cc4c[nH]c5ccccc45)C(=O)N[C@@H]([C@@H](C)O)C(=O)N3)NC2=O)C(=O)N[C@@H](CCCCN)C(=O)N[C@@H](C)C(=O)N[C@@H](Cc2c[nH]c3ccccc23)C(=O)N1)[C@@H](C)CC)C(N)=O` [compound 19], the IC50 in experiment [1] was 0.3 µM; in experiment [2], greater than 5 µM; in experiment [3], 0.34 µM; in experiment [4], 0.44 µM. In experiment [3], the Nav1.4/Nav1.7 is reported as 1.
`CC[C@H](C)[C@H](NC(=O)[C@H](C)NC(=O)[C@H](CCCCN)NC(=O)[C@H](CCCNC(=N)N)NC(=O)[C@@H]1CSSC[C@@H]2NC(=O)[C@H](C)NC(=O)[C@H](CCCNC(=N)N)NC(=O)[C@H](CCCCN)NC(=O)[C@H](CO)NC(=O)[C@H](CC(=O)O)NC(=O)[C@@H]3CSSC[C@H](NC(=O)[C@H](CCCNC(=N)N)NC(=O)[C@H](CC(C)C)NC(=O)CNC(=O)[C@H](CCC(=O)O)NC(=O)[C@H](CSSC[C@H](NC(=O)[C@@H](N)Cc4ccc(O)cc4)C(=O)N[C@@H](CCC(N)=O)C(=O)N[C@@H](CCCCN)C(=O)N[C@@H](Cc4c[nH]c5ccccc45)C(=O)N[C@@H](CCSC)C(=O)N[C@@H](Cc4c[nH]c5ccccc45)C(=O)N[C@@H]([C@@H](C)O)C(=O)N3)NC2=O)C(=O)N[C@@H](CCCCN)C(=O)N[C@@H](CC(C)C)C(=O)N[C@@H](Cc2c[nH]c3ccccc23)C(=O)N1)C(N)=O` [compound 23]: the IC50 in experiment [1] is 0.03 µM; in experiment [2], greater than 5 µM; in experiment [3], 0.29 µM; in experiment [4] it was 0.25 µM. For the same molecule, the Nav1.4/Nav1.7 in experiment [3] is recorded as 10.
On the same counts, the results for `CC[C@H](C)[C@H](NC(=O)[C@H](CCCCN)NC(=O)[C@H](CCCNC(=N)N)NC(=O)[C@@H]1CSSC[C@@H]2NC(=O)[C@H](C)NC(=O)[C@H](CCCNC(=N)N)NC(=O)[C@H](CCCCN)NC(=O)[C@H](CO)NC(=O)[C@H](CC(=O)O)NC(=O)[C@@H]3CSSC[C@H](NC(=O)[C@H](CCCNC(=N)N)NC(=O)[C@H](CC(C)C)NC(=O)CNC(=O)[C@H](CCC(=O)O)NC(=O)[C@H](CSSC[C@H](NC(=O)[C@@H](N)Cc4ccc(O)cc4)C(=O)N[C@@H](CCC(N)=O)C(=O)N[C@@H](CCCCN)C(=O)N[C@@H](Cc4c[nH]c5ccccc45)C(=O)N[C@@H](CCSC)C(=O)N[C@@H](Cc4c[nH]c5ccccc45)C(=O)N[C@@H]([C@@H](C)O)C(=O)N3)NC2=O)C(=O)N[C@@H](CCCCN)C(=O)N[C@@H](CC(C)C)C(=O)N[C@@H](Cc2c[nH]c3ccccc23)C(=O)N1)C(=O)N[C@@H](C)C(N)=O` [compound 24] are 0.053 µM, greater than 5 µM, 0.27 µM, 0.45 µM and 5.
As to `CC[C@H](C)[C@H](NC(=O)[C@@H](NC(=O)[C@H](CCCCN)NC(=O)[C@H](CCCNC(=N)N)NC(=O)[C@@H]1CSSC[C@@H]2NC(=O)[C@H](C)NC(=O)[C@H](CCCNC(=N)N)NC(=O)[C@H](CCCCN)NC(=O)[C@H](CO)NC(=O)[C@H](CC(=O)O)NC(=O)[C@@H]3CSSC[C@H](NC(=O)[C@H](CCCNC(=N)N)NC(=O)[C@H](CC(C)C)NC(=O)CNC(=O)[C@H](CCC(=O)O)NC(=O)[C@H](CSSC[C@H](NC(=O)[C@@H](N)Cc4cccc5ccccc45)C(=O)N[C@@H](CCC(N)=O)C(=O)N[C@@H](CCCCN)C(=O)N[C@@H](Cc4c[nH]c5ccccc45)C(=O)N[C@@H](CCSC)C(=O)N[C@@H](Cc4c[nH]c5ccccc45)C(=O)N[C@@H]([C@@H](C)O)C(=O)N3)NC2=O)C(=O)N[C@@H](CCCCN)C(=O)N[C@@H](CC(C)C)C(=O)N[C@@H](Cc2c[nH]c3ccccc23)C(=O)N1)[C@@H](C)CC)C(N)=O` [compound 25], the IC50 came to 0.008 µM in experiment [1], 2.3 µM in experiment [2], 0.09 µM in experiment [3] and 0.07 µM in experiment [4]. Besides, the Nav1.4/Nav1.7 in experiment [3] is reported as 10.

Values taken from patent US10344060B2 (priority 2013, dated 2019).
